Experimental data reported in US4863748A, “Dietary products and uses comprising methylsulfonylmethane” (priority 1986, dated 1989).

How the values were obtained:
[1] = tested on: lymphomas; conditions: oral, cited from earlier work
[2] = tested on: stress death; assay: Stress death in fish (Example 10); assay type: in vivo, Goldfish; conditions: 2% by weight in feed, 25 fish; control 11 deaths
Protocol: 62 Goldfish, about 2 inches long, were divided into two 31 population lots and placed in acclimated aquariums (2) maintained at 50° F. On receipt of the fish, two small one gallon aquariums were filled with tap water and stablized for 5 days by aeration with an aerator/filter combination connected to a common aquarium air pump. Air delivery during the test period was standardized at 100 ml of air per minute. From a 1 oz. package of "Wardleys" goldfish food two 10 gram samples were removed. One sample was untreated and the other was moistened with about one ml of pure ethanol containing 0.2 gram methylsulfonylmethane in solution. The feed absorbed all the methylsulfonylmethane (the lot after air drying for 48 hours weighed 10.2 grams). Both feeds were pulverized to a coarse powder suitable for feeding small fish.
The 31 fish in each of the two holding aquariums were identified as batch A and batch B. During the acclimatization and test periods the batch A fish were fed 0.5 gram of untreated "Wardleys" food once daily. Batch B fish were fed 0.5 gram of the feed containing the methylsulfonylmethane during the acclimatization and test periods. Neither batch A nor B consumed all of the feed as some eventually collected in the fiberglass filter. However, most of each feeding was consumed in the first 5-10 minutes after delivery. […]

[3] = Excretion of methylsulfonylmethane; assay type: in vivo
Text: Orally ingested methylsulfonylmethane is stored to some degree in various organs, presumably banked for future sulfur needs of the body. The skin excretion route is unusual, particularly since about one-third of a given oral dose can be found in the perspiration. Like NaCl, excretion depends somewhat on perspiration rate. The accumulation in and excretion of methylsulfonylmethane from the skin is believed to account for its cosmetic effect, viz., more youthful appearing, pliable, blemish-reduced skin. Chemical and radiolabeled sulfur (35-S) assays can be used to determine the extent to which important biomolecules as heparin, insulin, co-enzyme A and other --SH bearing enzymes, biotin, methionine enkaphalin, human growth factor, hemoglobin, calcitonin, fibrinogen, muscle protein and other compounds derive their thiol (--S--) and disulfide (--S--S--) groups from methylsulfonylmethane and the possible preference of methylsulfonylmethane over S-content amino acids as the donor with such synthesis.

[4] = tested on: epiphysitis; conditions: oral; cited from earlier work

## CS(C)(=O)=O [methylsulfonylmethane]
[1]; compared with control
  development of lymphomas: significant delay
  tumor incidence: decreased
[1]; only grossly examined
  joint involvement: marked reduction
[1]
  titer of primary IgM and secondary IgG: increased titer
[2]
  deaths in aquarium by day ten: one
[3]; i.v. administration
  rate of excretion: very rapidly excreted
[3]; in vivo
  excretion of excess amounts (feces, renal pathway, skin): excreted unchanged
[3]; oral
  portion of a given oral dose found in the perspiration: about one-third
[4]
  correction of epiphysitis: rapidly corrected
